{"source": "patent US7238469B2", "about": "“Carbon monoxide improves outcomes in tissue and organ transplants and suppresses apoptosis” (priority 2001, dated 2007)", "key": {"[1]": {"tested_on": "mouse hearts transplanted into rats", "test": "Immunohistology of cardiac grafts (thrombosis, apoptosis)", "type": "in vivo, BALB/c mouse hearts, Lewis rats", "conditions": "for vascular thrombosis in graft: 3 days after transplantation", "description": "Grafts were harvested 3 days after transplantation, snap-frozen in liquid nitrogen, and stored at −80° C. Cryostat sections were fixed and stained as described previously (Soares et al, Nature Med. 4:1073, 1998). Rat leukocyte populations were analyzed by using anti-rat leukocyte common Ag (LCA, CD45; OX-1), Éé TCR (TCRÉé-chains; R73), B cell (CD45RB; OX-33), NK cell (NKR-P1; 3.2.3), and MΦ (CD68; ED-1), mAbs (Serotec, Harlan Bioproducts for Science, Indianapolis, Ind.). Detection of fibrin/fibrinogen was conducted by using a rabbit anti-human fibrin/fibrinogen polyclonal Ab (Dako, Carpinteria, Calif.). Intragraft complement activation was detected by using an anti-rat Clq (The Binding Site, Birmigham, U. K.), C3 (ED11; Serotec), or C5b-9 mAb (Dako). Rat IgM was detected by using the mouse anti-rat IgM mAb MARM-4 (a kind gift of Dr. H. Bazin, University of Louvain, Brussels, Belgium). Isotype-matched mAbs or purified Ig, as well as a control for residual endogenous peroxidase activity, were included in each experiment. Detection of apoptosis was carried out by using ApopTagO in situ apoptosis detection kit (Oncor, Gaithersburg, Md.) according to the manufacturer's instructions.\nMouse hearts were transplanted into CVF plus CsA-treated rats. SnPPIX or FePPIX was administered and graft recipients were exposed to CO (250–400 ppm). Grafts were harvested 3 days after transplantation (n=3 per group) and stained for rat IgM, rat and mouse complement C1q, rat and mouse P-selectin, rat and mouse fibrin/fibrinogen, and rat CD45 expressing leukocytes. […] HO-2, HO-1, and ferritin were detected in graft endothelial and smooth muscle cells as well as in cardiac myocytes (data not shown). There was only minimal vascular thrombosis or infiltration by host leukocytes usually associated with focal areas of infarction (data not shown). There was low but detectable P-selectin expression on the vascular endothelium (data not shown). […] Thrombi were consistently observed in large coronary vessels at the base of the heart. There were no detectable P-selectin-expressing platelet aggregates in the microvasculature (data not shown). There was extensive graft infiltration by host neutrophils as well as by CD45^++ leukocytes expressing the monocyte/MΦ marker CD68/ED-1 and MHC class II Ags (data not shown). Infiltrating monocyte/MΦ were found near arterioles and scattered throughout the myocardium, associated with areas of infarction."}, "HO enzymatic activity": {"tested_on": "HO enzymatic activity", "test": "HO enzymatic activity (bilirubin generation in microsomes) of transplanted hearts", "type": "in vivo, mouse hearts transplanted into rats", "conditions": "2 days after transplantation", "description": "HO enzymatic activity was measured by bilirubin generation in heart and liver microsomes. Animals were sacrificed, and the liver and hearts were flushed with ice-cold PBS and frozen at −70° C. until used. Organs were homogenized in four volumes of sucrose (250 mM) Tris-HCl (10 mM/L) buffer (pH 7.4) on ice and centrifuged (28,000 RPM 3×, 20 min, 4° C.). The supernatant was centrifuged (105,000 RPM 3×, 60 min, 4° C.), and the microsomal pellet was resuspended in MgCl2 (2 mM)-potassium phosphate (100 mM) buffer (pH 7.4) and sonicated on ice. The samples (1 mg of protein) were added to the reaction mixture (400 îl) containing rat liver cytosol (2 mg of protein), hemin (50 îM), glucose-6-phosphate (2 mM), glucose-6-phosphate dehydrogenase (0.25 U), and NADPH (0.8 mM) for 60 min at 37° C. in the dark. The formed bilirubin was extracted with chloroform and, OD was measured at 464–530 nm (extinction coefficient, 40 mM/cm for bilirubin). Enzyme activity is expressed as picomoles of bilirubin formed per milligram of protein per 60 min (pmol/mg/h). The protein concentration was determined by the bicinchoninic acid protein assay (Pierce, Georgetown). The background was ˜5 pmol/mg/h. […] Carboxyhemoglobin was measured 2 days after transplantation by using a Corning 865 blood gas analyzer (Clinical Chemistry, Massachusetts General Hospital, Boston, Mass.)."}, "[2]": {"tested_on": "mouse 2F–2B endothelial cells", "test": "Cellular ELISA for anti-graft Abs and rat C3 binding to mouse endothelial cells", "type": "in vivo", "conditions": "rats with mouse cardiac graft under CVF plus CsA", "description": "Serum levels of rat anti-mouse Abs were measured by cellular-based indirect ELISA. The mouse 2F–2B endothelial cell line (CRL-2168; American Type Culture Collection (ATCC), Manassas, Va.) was used as an antigenic target. Briefly, 2F–2B cells were cultured in DMEM (Life Technologies, Rockville, Md.), 10% FCS, 100 U/ml penicillin, and 100 îg/ml streptomycin (Life Technologies). Glutaraldehyde-fixed 2F–2B cells were incubated (1 h, 37° C.) in the presence of rat serum serially diluted in PBS 0.05% Tween 20 (Sigma) and rat anti-mouse Abs were detected by using mouse anti-rat IgM (MARM-4), IgG1 (MARG1-2), IgG2a (Marg2a-1), IgG2b (MARGb-8), or IgG2c (MARG2c-5) (kind gifts from Prof. H. Bazin, University of Louvain, Brussels, Belgium). Mouse anti-rat Abs were detected by using HRP-labeled goat anti-mouse Fab′ depleted of anti-rat Ig cross reactivity (0.1 îg/ml, 1 h, room temperature; Pierce, Rockford, Ill.). […] Absorbance was measured at Î=490 nm. The relative amount of circulating anti-graft Abs in the serum was expressed as OD (Î=490) taken from one serial dilution in the linear range of the assay (1:32–1:1024).\nBinding of rat C3 to mouse endothelial cells was measured by a modified cellular ELISA with mouse 2F–2B endothelial cells as antigenic targets (Miyatake et al, J. Immunol. 160:4114, 1998). Briefly, nonfixed 2F–2B endothelial cells were incubated in the presence of rat serum serially diluted in GVB^++ buffer (1 h, 37° C.). Cells were fixed in PBS, 0.05% glutaraldehyde, and rat C3 deposition was detected by using a mouse anti-rat C3 mAb (Serotec)."}, "[3]": {"conditions": "rats treated with SnPPIX and exposed to CO"}, "[4]": {"conditions": "rats treated with SnPPIX or FePPIX"}}}
{"molecule": "[C-]#[O+]", "note": "[CO, carbon monoxide]", "values": [{"measurement": "vascular thrombosis in graft", "setting": "[1]; SnPPIX-treated rats exposed to CO 250–400 ppm", "value": "no signs of vascular thrombosis"}, {"measurement": "apoptosis in transplanted mouse hearts", "setting": "[1]; [3]", "value": "Apoptosis did not occur"}, {"measurement": "total HO enzymatic activity in transplanted mouse hearts", "setting": "HO enzymatic activity; [3]", "value": "43.6 ± 7.57", "unit": "pmol/mg/h"}]}
{"molecule": "C=Cc1c2[n-]c(c1C)/C=c1\\[n-]/c(c(C)c1C=C)=C\\c1[n-]c(c(CCC(=O)O)c1C)C=c1[n-]/c(c(C)c1CCC(=O)O)=C\\2.[Sn+4]", "note": "[SnPPIX, tin protoporphyrin IX]", "values": [{"measurement": "vascular thrombosis in graft", "setting": "[1]; CVF plus CsA-treated rats, SnPPIX", "value": "widespread vascular thrombosis of large coronary vessels"}, {"measurement": "apoptosis in transplanted mouse hearts", "setting": "[1]; [4]", "value": "widespread apoptosis of endothelial cells and cardiac myocytes"}, {"measurement": "total HO enzymatic activity in transplanted mouse hearts", "setting": "HO enzymatic activity", "value": "32.37 ± 7.23", "unit": "pmol/mg/h"}, {"measurement": "influence on C3 deposition on mouse endothelial cells", "setting": "[2]", "value": "Neither SnPPIX or FePPIX treatment influenced C3 deposition"}, {"measurement": "influence on anti-mouse Ab (IgM) response", "setting": "[2]", "value": "did not influence this Ab response"}]}
{"molecule": "C=CC1=C(C)c2cc3[n-]c(cc4[n-]c(cc5nc(cc1n2)C(C)=C5C=C)c(C)c4CCC(=O)O)c(CCC(=O)O)c3C.[Fe+2]", "note": "[FePPIX, iron protoporphyrin]", "values": [{"measurement": "apoptosis in transplanted mouse hearts", "setting": "[1]; [4]", "value": "Apoptosis did not occur"}, {"measurement": "influence on C3 deposition on mouse endothelial cells", "setting": "[2]", "value": "Neither SnPPIX or FePPIX treatment influenced C3 deposition"}, {"measurement": "influence on anti-mouse Ab (IgM) response", "setting": "[2]", "value": "did not influence this Ab response"}]}
